In patent publication US20250302815A1, “PROTEIN TYROSINE PHOSPHATASE TARGETING LIGANDS” (CALICO LIFE SCIENCES LLC, priority 2021, published 2025):

Key:
[1] = biological target: T1, PTPN2 (HiBIT-PTPN2 in 293T.109 cells) (Homo sapiens, UniProt P17706); test: HiBiT Degradation 293T.109 PTPN2 (Nano-Glo HiBiT Lytic Assay); type: cell-based; conditions: 24.0 hours
T1 construct: expressed in transfected cells; host or cells: 293T.109 (293T WT from ATCC)
T1 sequence (P17706 1-415): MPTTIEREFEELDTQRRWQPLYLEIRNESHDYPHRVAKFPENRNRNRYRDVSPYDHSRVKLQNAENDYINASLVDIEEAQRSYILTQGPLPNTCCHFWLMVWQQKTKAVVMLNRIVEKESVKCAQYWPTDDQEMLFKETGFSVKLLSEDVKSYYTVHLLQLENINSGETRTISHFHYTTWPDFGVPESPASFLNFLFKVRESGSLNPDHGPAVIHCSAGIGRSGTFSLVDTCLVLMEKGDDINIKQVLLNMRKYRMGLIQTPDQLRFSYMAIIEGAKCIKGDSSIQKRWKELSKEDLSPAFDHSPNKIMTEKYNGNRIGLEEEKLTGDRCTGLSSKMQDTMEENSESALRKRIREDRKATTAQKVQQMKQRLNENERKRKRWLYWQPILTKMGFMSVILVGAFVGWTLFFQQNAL
Description: Dulbecco's modified Eagle medium (DMEM) without phenol red and fetal bovine serum (FBS) were purchased from Gibco (Grand Island, NY, USA). Nano-Glo® HiBIT Lytic Assay System was purchased from Promega (Madison, WI, USA). 293T.109 (HiBIT-PTPN2) cell line was generated by ectopically expressing PTPN2 with N-terminal HiBIT fusion tag in 293T WT cell line purchased from ATCC (Manassas, VA, USA). Cell culture flasks and 384-well microplates were acquired from VWR (Radnor, PA, USA).
PTPN2 degradation was determined based on quantification of luminescent signal using Nano-Glo® HiBIT Lytic Assay kit. Test compounds were added to the 384-well plate from a top concentration of 10 μM with 11 points, half log titration in duplicates. 293T.109 cells were added into 384-well plates at a cell density of 5000 cells per well. The plates were kept at 37° C. with 5% CO2 for 24 hours. The cells treated in the absence of the test compound were the negative control and the cells without Nano-Glo® HiBIT Lytic reagent were the positive control. After 24-hour incubation, Nano-Glo® HiBiT Lytic Assay reagents were added to the cells. Luminescence was acquired on EnVision™ Multilabel Reader (PerkinElmer, Santa Clara, CA, USA).

PTPN2 (B16F10.4 cells) = biological target: T2, PTPN2 (B16F10.4 cells) (Mus musculus, UniProt Q06180); test: HiBiT Degradation B16F10.4 PTPN2; type: cell-based; conditions: 24.0 hours
T2 construct: HiBiT; host or cells: B16F10.4
T2 sequence (Q06180 1-406): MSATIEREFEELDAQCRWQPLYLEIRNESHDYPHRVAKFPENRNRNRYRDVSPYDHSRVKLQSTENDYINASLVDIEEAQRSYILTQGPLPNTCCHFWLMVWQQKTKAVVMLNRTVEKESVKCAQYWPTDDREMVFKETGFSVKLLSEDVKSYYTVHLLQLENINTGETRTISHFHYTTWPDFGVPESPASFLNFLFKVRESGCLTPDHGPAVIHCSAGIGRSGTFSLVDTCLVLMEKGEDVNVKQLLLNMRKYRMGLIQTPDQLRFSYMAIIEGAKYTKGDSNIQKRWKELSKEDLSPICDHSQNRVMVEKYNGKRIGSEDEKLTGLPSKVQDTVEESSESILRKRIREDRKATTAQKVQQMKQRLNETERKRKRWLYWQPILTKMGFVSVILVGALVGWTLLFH

Compound | DC50 [1] [nM] | DC50 (PTPN2 (B16F10.4 cells)) [nM]
CC1(C)C[C@@H](Nc2cccc(-c3sc(C(=O)O)c(OCC(=O)O)c3Cl)c2)CCN1S(=O)(=O)Cc1cccc(NC(=O)NCCCc2ccc3c4c(cccc24)C(=O)N3C2CCC(=O)NC2=O)c1 (stereo partly drawn) [Example 156, 3-(carboxymethoxy)-4-chloro-5-(3-(((4S)-1-((3-(3-(3-(1-(2,6-dioxopiperidin-3-yl)-2-oxo-1,2-dihydrobenzo[cd]indol-6-yl)propyl)ureido)benzyl)sulfonyl)-2,2-dimethylpiperidin-4-yl)amino)phenyl)thiophene-2-carboxylic acid] | < 50 | < 50
CC1(C)C[C@@H](Nc2cccc(-c3sc(C(=O)O)c(OCC(=O)O)c3Cl)c2)CCN1S(=O)(=O)Cc1cccc(NC(=O)C2CCN(C(=O)COc3cccc4c3CN(C3CCC(=O)NC3=O)C4=O)CC2)c1 (stereo partly drawn) [Example 63, 3-(carboxymethoxy)-4-chloro-5-(3-(((4S)-1-((3-(1-(2-((2-(2,6-dioxopiperidin-3-yl)-1-oxoisoindolin-4-yl)oxy)acetyl)piperidine-4-carboxamido)benzyl)sulfonyl)-2,2-dimethylpiperidin-4-yl)amino)phenyl)thiophene-2-carboxylic acid] | 50 to 200 | 200 to 1000
CC1(C)C[C@@H](Nc2cccc(-c3sc(C(=O)O)c(OCC(=O)O)c3Cl)c2)CCN1S(=O)(=O)Cc1cccc(NC(=O)C2CN(C(=O)CNc3cccc4c3CN(C3CCC(=O)NC3=O)C4=O)C2)c1 (stereo partly drawn) [Example 44, 3-(Carboxymethoxy)-4-chloro-5-(3-(((4S)-1-((3-(1-((2-(2,6-dioxopiperidin-3-yl)-1-oxoisoindolin-4-yl)glycyl)azetidine-3-carboxamido)benzyl)sulfonyl)-2,2-dimethylpiperidin-4-yl)amino)phenyl)thiophene-2-carboxylic acid] | < 50 | 200 to 1000
CC1(C)C[C@@H](Nc2cccc(-c3sc(C(=O)O)c(OCC(=O)O)c3Cl)c2)CCN1S(=O)(=O)Cc1cccc(NC(=O)C2CCN(C(=O)CNc3ccc4c(c3)CN(C3CCC(=O)NC3=O)C4=O)CC2)c1 (stereo partly drawn) [Example 41, 3-(carboxymethoxy)-4-chloro-5-(3-(((4S)-1-((3-(1-((2-(2,6-dioxopiperidin-3-yl)-1-oxoisoindolin-5-yl)glycyl)piperidine-4-carboxamido)benzyl)sulfonyl)-2,2-dimethylpiperidin-4-yl)amino)phenyl)thiophene-2-carboxylic acid] | 50 to 200 | ≥ 1000
COCCn1c(=O)n(C2CCC(=O)NC2=O)c2ccc(C3CCN(C(=O)Nc4cccc(CS(=O)(=O)N5CC[C@H](Nc6cccc(-c7sc(C(=O)O)c(OCC(=O)O)c7Cl)c6)CC5(C)C)c4)CC3)cc21 (stereo partly drawn) [Example 160, 3-(carboxymethoxy)-4-chloro-5-(3-(((4S)-1-((3-(4-(1-(2,6-dioxopiperidin-3-yl)-3-(2-methoxyethyl)-2-oxo-2,3-dihydro-1H-benzo[d]imidazol-5-yl)piperidine-1-carboxamido)benzyl)sulfonyl)-2,2-dimethylpiperidin-4-yl)amino)phenyl)thiophene-2-carboxylic acid] | 50 to 200 | 50 to 200
Cn1c(=O)n([C@H]2CCC(=O)NC2=O)c2ccc(C3CCN(C(=O)Nc4cccc(CS(=O)(=O)N5CC[C@H](Nc6cccc(-c7sc(C(=O)O)c(OCC(=O)O)c7Cl)c6)CC5(C)C)c4)CC3)cc21 (single isomer, unassigned) [Example 234] | < 50 | < 50
CC(C)n1c(=O)n(C2CCC(=O)NC2=O)c2ccc(C3CCN(CC(=O)Nc4cccc(CS(=O)(=O)N5CC[C@H](Nc6cccc(-c7sc(C(=O)O)c(OCC(=O)O)c7Cl)c6)CC5(C)C)c4)CC3(F)F)cc21 (stereo partly drawn) [Example 176, 3-(carboxymethoxy)-4-chloro-5-[3-[[(4S)-1-[[3-[[2-[4-[1-(2,6-dioxo-3-piperidyl)-3-isopropyl-2-oxo-benzimidazol-5-yl]-3,3-difluoro-1-piperidyl]acetyl]amino]phenyl]methylsulfonyl]-2,2-dimethyl-4-piperidyl]amino]phenyl]thiophene-2-carboxylic acid] | 50 to 200 | 50 to 200
CC1(C)C[C@H](Nc2cccc(-c3sc(C(=O)O)c(OCC(=O)O)c3Cl)c2)CCN1S(=O)(=O)Cc1cc(NC(=O)N2CCC(c3ccc4c5c(cccc35)C(=O)N4C3CCC(=O)NC3=O)CC2)ccc1F (stereo partly shown) [Example 162] | 200 to 1000 | < 50
Cn1c(=O)n(C2CCC(=O)NC2=O)c2ccc(NC3CCN(C(=O)Nc4cccc(CS(=O)(=O)N5CC[C@H](Nc6cccc(-c7sc(C(=O)O)c(OCC(=O)O)c7Cl)c6)CC5(C)C)c4)CC3)cc21 (stereo partly drawn) [Example 81, 3-(carboxymethoxy)-4-chloro-5-[3-[[(4S)-1-[[3-[[4-[[1-(2,6-dioxo-3-piperidyl)-3-methyl-2-oxo-benzimidazol-5-yl]amino]piperidine-1-carbonyl]amino]phenyl]methylsulfonyl]-2,2-dimethyl-4-piperidyl]amino]phenyl]thiophene-2-carboxylic acid] | 50 to 200 | 50 to 200
CC1(C)C[C@@H](Nc2cccc(-c3sc(C(=O)O)c(OCC(=O)O)c3Cl)c2)CCN1S(=O)(=O)Cc1cccc(N2CCN(CCCc3ccc4c5c(cccc35)C(=O)N4C3CCC(=O)NC3=O)C2=O)c1 (stereo partly shown) [Example 202] | 200 to 1000 | 50 to 200
CC1(C)C[C@@H](Nc2cccc(-c3sc(C(=O)O)c(OCC(=O)O)c3Cl)c2)CCN1S(=O)(=O)Cc1cccc(NC(=O)[C@H]2CC[C@@H](c3ccc4c5c(cccc53)C(=O)N4C3CCC(=O)NC3=O)CC2)c1 (stereo partly drawn) [Example 166, 3-(carboxymethoxy)-4-chloro-5-(3-(((4S)-1-((3-((1s,4R)-4-(1-(2,6-dioxopiperidin-3-yl)-2-oxo-1,2-dihydrobenzo[cd]indol-6-yl)cyclohexane-1-carboxamido)benzyl)sulfonyl)-2,2-dimethylpiperidin-4-yl)amino)phenyl)thiophene-2-carboxylic acid] | 50 to 200 | 50 to 200
CC1(C)C[C@@H](Nc2cccc(-c3sc(C(=O)O)c(OCC(=O)O)c3Cl)c2)CCN1S(=O)(=O)Cc1cccc(NC(=O)[C@H]2[C@@H]3CN(C(=O)CNc4cccc5c4CN(C4CCC(=O)NC4=O)C5=O)C[C@@H]32)c1 (stereo partly shown) [Example 98] | 50 to 200 | 200 to 1000
O=C(O)COc1c(C(=O)O)sc(-c2cccc(N[C@@H]3CCN(S(=O)(=O)Cc4cccc(NC(=O)N5CCC(c6ccc7c8c(cccc68)C(=O)N7C6CCC(=O)NC6=O)CC5)c4)C4(CC4)C3)c2)c1Cl (stereo partly drawn) [Example 231, 3-(carboxymethoxy)-4-chloro-5-(3-(((7R)-4-((3-(4-(1-(2,6-dioxopiperidin-3-yl)-2-oxo-1,2-dihydrobenzo[cd]indol-6-yl)piperidine-1-carboxamido)benzyl)sulfonyl)-4-azaspiro[2.5]octan-7-yl)amino)phenyl)thiophene-2-carboxylic acid] | 50 to 200 | < 50
CC1(C)C[C@@H](Nc2cccc(-c3sc(C(=O)O)c(OCC(=O)O)c3Cl)c2)CCN1S(=O)(=O)Cc1cccc(NC(=O)N2CCCN(c3ccc4c5c(cccc35)N(C3CCC(=O)NC3=O)C4=O)CC2)c1 (stereo partly drawn) [Example 164, 3-(carboxymethoxy)-4-chloro-5-(3-(((4S)-1-((3-(4-(1-(2,6-dioxopiperidin-3-yl)-2-oxo-1,2-dihydrobenzo[cd]indol-5-yl)-1,4-diazepane-1-carboxamido)benzyl)sulfonyl)-2,2-dimethylpiperidin-4-yl)amino)phenyl)thiophene-2-carboxylic acid] | 200 to 1000 | 
Cn1c(=O)n(C2CCC(=O)NC2=O)c2ccc(N3CCCC4(CN(C(=O)Nc5cccc(CS(=O)(=O)N6CC[C@H](Nc7cccc(-c8sc(C(=O)O)c(OCC(=O)O)c8Cl)c7)CC6(C)C)c5)C4)C3)cc21 (stereo partly shown) [Example 141] |  | 200 to 1000
